Assay results from the supplement of paper PMC10627819.

Columns and labels:
S. aureus Newman [1] = assay: fitness (endpoint OD595 vs no drug) (fraction); higher = more growth
In short: (§1)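 Fitness is computed from the optical density at which cultures reach stationary phase, divided by the robust mean of no-drug control wells. Any value above 1 is set to 1. Cultures started at OD595 0.01 in 384-well plates with TSB, LB Lennox or CY at 37 °C, and OD595 was read every 30 min for 14 h against a first-reading background.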

S. aureus DSM 20231 = assay: Bliss interaction score (quartile over a dose matrix) (fitness difference); higher = more antagonism (negative = synergy)
In short: (§2)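 Quartiles of the Bliss score were taken over technical, biological and donor/recipient replicates. That score is observed fitness minus the product of the single-drug fitness values, which were inferred from combination data. Fitness itself is OD595 at entry into stationary phase divided by the plate's robust no-drug mean, with a cap at 1.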

S. pneumoniae D39V [2] = assay: as above
In short: as §2

B. subtilis 168 = assay: as above
In short: as §2

S. aureus Newman [3] = assay: as above
In short: as §2

S. pneumoniae D39V [4] = assay: fitness (endpoint OD595 vs no drug) (fraction); higher = more growth
In short: as §1
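Wherever Bliss interaction score (quartile over a dose matrix) is given: first quartile when negative (synergy) and third quartile when positive (antagonism).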

CO/N=C(\C(=O)N[C@@H]1C(=O)N2C(C(=O)O)=C(COC(N)=O)CS[C@H]12)c1ccco1 [Cefuroxime] + Cn1nnc(-c2ccc(-c3ccc(N4C[C@H](CO)OC4=O)cc3F)cn2)n1 [Tedizolid]
fitness, S. aureus Newman [1], one replicate
Conditions | first compound 0.04875 µg/mL | first compound 0.0975 µg/mL | first compound 0.195 µg/mL
partner 0.0625 µg/mL | 0.614 | 0.641 | 0.517
partner 0.125 µg/mL | 0.0599 | 0.0707 | 0.0587
partner 0.25 µg/mL | 0.496 | 0.513 | 0.425

Conditions | Bliss interaction score
B. subtilis 168 | 0.136
S. aureus DSM 20231 | -0.223
S. aureus Newman [3] | 0.259
S. pneumoniae D39V [2] | 0.026

O=C(O)c1cn(C2CC2)c2cc(N3CCNCC3)c(F)cc2c1=O [Ciprofloxacin] + CCCCCCCCCC(=O)N[C@@H]1[C@H]([C@@H]([C@H](O[C@H]1OC2=C3C=C4C=C2OC5=C(C=C(C=C5)[C@H]([C@H]6C(=O)N[C@@H](C7=C(C(=CC(=C7)O)OC8[C@H]([C@H]([C@@H]([C@H](O8)CO)O)O)O)C9=C(C=CC(=C9)[C@H](C(=O)N6)NC(=O)[C@@H]4NC(=O)[C@@H]1C2=CC(=CC(=C2)OC2=C(C=CC(=C2)[C@H](C(=O)N[C@H](CC2=CC(=C(O3)C=C2)Cl)C(=O)N1)N)O)O)O)C(=O)O)O[C@H]1[C@@H]([C@H]([C@@H]([C@H](O1)CO)O)O)NC(=O)C)Cl)CO)O)O [Teicoplanin]
fitness, S. aureus Newman [1], main component drawn
Conditions | first compound 0.0375 µg/mL | first compound 0.075 µg/mL | first compound 0.15 µg/mL
partner 0.1562 µg/mL | 0.681 | 0.629 | 0.0421
partner 0.3125 µg/mL | 0.713 | 0.626 | 0.0116
partner 0.625 µg/mL | 0.608 | 0.534 | 0.0117

fitness, S. aureus Newman [1], one replicate, main component drawn
Conditions | first compound 0.078 µg/mL | first compound 0.156 µg/mL | first compound 0.312 µg/mL
partner 0.62 µg/mL | 0.535 | 0.0341 | 0.036
partner 1.24 µg/mL | 0.372 | 0.0368 | 0.0337
partner 2.48 µg/mL | 0.0816 | 0.0702 | 0.0565

main component drawn
Conditions | Bliss interaction score
B. subtilis 168 | -0.1
S. aureus DSM 20231 | 0.0835
S. aureus Newman [3] | -0.0935
S. pneumoniae D39V [2] | -0.063

C[C@@H]1O[C@@H]1P(=O)(O)O [Fosfomycin] + C/C(=C\C(=O)OCCCCCCCCC(=O)O)C[C@@H]1OC[C@H](C[C@@H]2O[C@H]2[C@@H](C)[C@H](C)O)[C@@H](O)[C@H]1O [Pseudomonic acid]
fitness, S. pneumoniae D39V [4]
Conditions | first compound 1.25 µg/mL | first compound 2.5 µg/mL | first compound 5 µg/mL
partner 0.03 µg/mL | 0.928 | 0.937 | 0.868
partner 0.06 µg/mL | 0.803 | 0.882 | –
partner 0.12 µg/mL | 0.531 | 0.454 | 0.201

fitness, S. aureus Newman [1], one replicate
Conditions | first compound 0.781 µg/mL | first compound 1.562 µg/mL | first compound 3.124 µg/mL
partner 0.0313 µg/mL | 0.0359 | 0.0031 | 0.0112
partner 0.0625 µg/mL | 0.0247 | 0.0394 | 0.0147
partner 0.125 µg/mL | 0.0275 | 0.0351 | 0.0342

Conditions | Bliss interaction score
B. subtilis 168 | 0.0483
S. aureus DSM 20231 | 0.0164
S. aureus Newman [3] | -0.0091
S. pneumoniae D39V [2] | -0.0714
